# Measurements published in PMC8877724 (Journal of medicinal chemistry, 2020).
# Entries after “also recorded” stand apart in the source; their conditions may differ. Where two headings read alike, the source gives them in different places.
# What was measured:
# [1] = system: NF-κB signaling in A549 cells bearing a stably transfected NF-κB-driven luciferase reporter gene; experiment: NF-κB luciferase reporter assay, TNF-α induced; format: cell-based; details: tested at 5-20 μM, 20 μM the highest concentration tested
# [2] = Reaction with excess cysteamine monitored by 1H NMR; format: physicochemical
# [3] = system: NF-κB signaling in HEK293 cells containing a stably transfected NF-κB-driven SEAP reporter gene; experiment: NF-κB secreted alkaline phosphatase; format: cell-based, human; details: tested at 1-7.5 μM, SEAP reporter assay
# Vero cells = experiment: Vero cell viability assay; format: cell-based, African green monkey; details: 48 h
# HEK293/NF-κB-SEAP cells = experiment: Cellular cytotoxicity accompanying the SEAP reporter assay; format: cell-based, human; details: 7.5 μM
# [4] = cited from earlier work
# A549/NF-κB-luc cells = details: 10 μM, A549/NF-κB-luc assay; cited from earlier work
# La antigen = biological target: T1, La antigen (Homo sapiens, UniProt P05455); details: cited from earlier work
# T1 sequence (P05455 100-324 limits assumed): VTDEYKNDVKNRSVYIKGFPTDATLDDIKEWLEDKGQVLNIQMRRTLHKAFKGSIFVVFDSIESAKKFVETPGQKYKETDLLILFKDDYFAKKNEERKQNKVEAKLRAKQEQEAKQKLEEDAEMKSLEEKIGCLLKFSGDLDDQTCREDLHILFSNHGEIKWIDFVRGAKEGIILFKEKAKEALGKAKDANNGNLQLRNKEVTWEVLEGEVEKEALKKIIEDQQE
molecule,measurement,setting,value
"C=C1C(=O)N(c2ccc(OC)cc2)[C@@H]2C3=C(c4ccccc4)C(=O)CC3=C(C)CC[C@@H]12 (relative stereo) [Compound 52, (3aS*,9bS*)-1-(4-Methoxyphenyl)-6-methyl-3-methylene-9-phenyl-1,3a,4,5,7,9b-hexahydro-2H-azuleno[4,5-b]pyrrole-2,8(3H)-dione]",NF-κB inhibition (in words),[1],no inhibitory activities; also recorded: little NF-κB inhibitory activity; also recorded: no NF-κB inhibition
"C=C1C(=O)N(c2ccccc2)[C@@H]2C3=C(c4ccccc4)C(=O)CC3=C(C)CC[C@@H]12 (relative stereo) [Compound 49, (3aS*,9bS*)-6-Methyl-3-methylene-1,9-diphenyl-1,3a,4,5,7,9b-hexahydro-2H-azuleno[4,5-b]pyrrole-2,8(3H)-dione]",NF-κB inhibition (in words),[1],no inhibitory activities; also recorded: little NF-κB inhibitory activity; also recorded: no NF-κB inhibition
"C=C1C(=O)N[C@@H]2C3=C(c4ccccc4)C(=O)CC3=C(C)CC[C@@H]12 (relative stereo) [Compound 45, (3aS*,9bS*)-6-Methyl-3-methylene-9-phenyl-3,3a,4,5-tetrahydro-1H-azuleno[4,5-b]pyrrole-2,8(7H,9bH)-dione]",NF-κB inhibition (in words),[1],did not inhibit NF-κB signaling; also recorded: no NF-κB inhibition
"C=C1C(=O)N(S(=O)(=O)c2ccc(C)cc2)[C@@H]2C3=C(c4ccccc4)C(=O)CC3=C(C)CC[C@@H]12 (relative stereo) [Compound 54, (3aS*,9bS*)-6-Methyl-3-methylene-9-phenyl-1-tosyl-1,3a,4,5,7,9b-hexahydro-2H-azuleno[4,5-b]pyrrole-2,8(3H)-dione]",time to complete reaction with cysteamine,"[2]; cysteamine (15 equiv), CDCl3, rt, disappearance of methylene resonances by 1H NMR",less than 10 min
"C=C1C(=O)N[C@@H]2C3=CC(=O)CC3=C(C)CC[C@@H]12 (relative stereo) [Compound 47, (3aS*,9bS*)-6-Methyl-3-methylene-1,3a,4,5,7,9b-hexahydro-2H-azuleno[4,5-b]pyrrole-2,8(3H)-dione]",NF-κB inhibition (in words),[1],did not inhibit NF-κB signaling; also recorded: little or no inhibition
same,NF-κB inhibition (in words),[3],little or no inhibition
same,cytotoxicity (in words),Vero cells,low cytotoxicity
"C=C1C(=O)O[C@@H]2[C@H]3O[C@]3(C)CC/C=C(\C)CC[C@@H]12 [PTL, parthenolide]",cytotoxicity (in words),HEK293/NF-κB-SEAP cells,moderate level of cytotoxicity
same,time to complete reaction with cysteamine,[4],less than 5 min
same,cytotoxicity (in words),A549/NF-κB-luc cells,no cytotoxicity
"3-methylene-9-phenyl-3,3a,4,5-tetrahydroazuleno[4,5-b]furan-2,8(7H,9bH)-dione [Compound S17]",Half-life,"[2]; HSCH2CH2NH2 (15 equiv), CDCl3 (0.006 M), rt",7 min
C=CC(=O)N1CCC[C@@H](n2nc(-c3ccc(Oc4ccccc4)cc3)c3c(N)ncnc32)C1 [Ibrutinib],ALARM NMR result,La antigen,ALARM NMR negative
"C=C1C(=O)N(C)[C@@H]2C3=C(c4ccccc4)C(=O)CC3=C(C)CC[C@@H]12 (relative stereo) [Compound 48, (3aS*,9bS*)-1,6-Dimethyl-3-methylene-9-phenyl-1,3a,4,5,7,9b-hexahydro-2H-azuleno[4,5-b]pyrrole-2,8(3H)-dione]",NF-κB inhibition (in words),[1],no inhibitory activities
